According to patent publication US11999727B2 (Tango Therapeutics, Inc., priority 2020, dated 2024):
Read-outs that look alike come from different tables or passages of the source.

How the values were obtained:
PRMT5 [1] = molecular target: T1, PRMT5 (Homo sapiens, UniProt O14744); assay: PRMT5 biochemical IC50 assay with SAM as cofactor; details: PRMT5, SAM as cofactor; read-out: SAM IC50
T1 construct: purchased Viva (custom protein)

PRMT5 [2] = molecular target: T1, PRMT5; assay: PRMT5 biochemical IC50 assay with no cofactor; details: PRMT5, no cofactor
Text: Table 1 indicates IC50 values (μM) against PRMT5 for exemplary compounds in the presence of SAM as cofactor, with no cofactor, and with MTA as cofactor, respectively (columns 4-6). […] Ki values can be calculated from the IC50 values as described in the Examples section. As detailed in the Examples section, for the assay performed in the presence of SAM, IC50=Ki×1.5 (Ki=IC50/1.5).

PRMT5 [3] = molecular target: T1, PRMT5; assay: PRMT5 biochemical IC50 assay with MTA as cofactor; details: PRMT5, MTA as cofactor; read-out: MTA IC50
[4] = test system: HAP1 MTAP-intact cell line; assay: SDMA in-cell western assay, HAP1 MTAP-intact; assay type: cell-based; details: HAP1 MTAP-intact, read-out: MTAP HAP1 intact IC50
Method in brief: (§1)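 Compounds were tested in HAP1 cells differing only in MTAP status (endogenous expression versus null). Cellular SDMA levels were then measured by in-cell western, giving an IC50 in each background.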

[5] = test system: HAP1 MTAP-deleted cell line; assay: SDMA in-cell western assay, HAP1 MTAP-deleted; assay type: cell-based; details: for IC50: HAP1 MTAP-deleted; for MTAP intact/deleted ratio: IC50 ratio HAP1 MTAP-intact / HAP1 MTAP-deleted
Method in brief: as §1

[6] = test system: HAP1 MTAP-deleted cell line; assay: Viability assay, MTAP-deleted cell line; assay type: cell-based; details: Homo sapiens, read-out: HAP1 MTAP deleted viability
Text: Table 1 additionally indicates IC50 values in a viability assay for the MTAP-deleted cell line (column 10), indicating the effect of treatment with compound on cell survival.

[7] = read-out: No Cofactor/ rel IC50
[8] = Homo sapiens, HAP1, SDMA in-cell western
[9] = Homo sapiens, HAP1, SDMA in-cell western, read-out: HAP 1 MTAP deleted IC50
[10] = HAP1, viability, HAP1 MTAP-deleted cell line
[11] = HAP1, viability assay, MTAP-deleted cell line
[12] = Homo sapiens, HAP1, SDMA in-cell western, read-out: HAP1 MTAP deleted IC50
[13] = HAP1, viability IC50, MTAP-deleted cell line

T1 sequence (O14744 whole entry): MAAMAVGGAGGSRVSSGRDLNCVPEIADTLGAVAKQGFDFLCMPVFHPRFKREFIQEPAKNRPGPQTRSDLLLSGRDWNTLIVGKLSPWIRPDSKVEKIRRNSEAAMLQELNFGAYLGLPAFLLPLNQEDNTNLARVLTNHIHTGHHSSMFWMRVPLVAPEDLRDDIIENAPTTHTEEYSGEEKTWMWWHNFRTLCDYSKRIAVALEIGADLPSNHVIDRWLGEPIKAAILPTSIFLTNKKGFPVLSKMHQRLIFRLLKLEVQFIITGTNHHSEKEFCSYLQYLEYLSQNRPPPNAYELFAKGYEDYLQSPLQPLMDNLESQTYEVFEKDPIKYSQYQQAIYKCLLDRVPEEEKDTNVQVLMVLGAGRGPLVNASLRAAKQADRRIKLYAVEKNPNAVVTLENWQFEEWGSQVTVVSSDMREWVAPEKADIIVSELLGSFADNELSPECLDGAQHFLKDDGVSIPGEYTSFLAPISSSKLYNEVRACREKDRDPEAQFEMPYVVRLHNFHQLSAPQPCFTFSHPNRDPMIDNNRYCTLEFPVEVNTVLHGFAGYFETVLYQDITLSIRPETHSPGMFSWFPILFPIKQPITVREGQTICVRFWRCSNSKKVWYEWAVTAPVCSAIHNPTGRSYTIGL
T1 sequence (Q9BQA1 whole entry partner): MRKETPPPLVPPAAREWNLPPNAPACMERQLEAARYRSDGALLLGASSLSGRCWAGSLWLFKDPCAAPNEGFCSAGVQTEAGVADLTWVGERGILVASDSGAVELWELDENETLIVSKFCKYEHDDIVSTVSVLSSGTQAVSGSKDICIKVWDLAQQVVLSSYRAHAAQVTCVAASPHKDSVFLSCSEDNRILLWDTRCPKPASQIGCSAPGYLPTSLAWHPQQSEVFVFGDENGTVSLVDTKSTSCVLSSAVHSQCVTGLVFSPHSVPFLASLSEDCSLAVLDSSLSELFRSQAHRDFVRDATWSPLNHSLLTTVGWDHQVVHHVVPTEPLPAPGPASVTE

Structure (SMILES) | IC50 (PRMT5 [1]) [nM] | IC50 (PRMT5 [2]; [7]) [nM] | IC50 (PRMT5 [3]) [nM] | IC50 [4, 8] [nM] | IC50 [5, 9] [nM] | MTAP intact/deleted ratio ([5]; SDMA in-cell western) | IC50 [6, 10] [nM] | IC50 (PRMT5 [2]; read-out: No Cofactor/rel IC50) [nM] | IC50 [6, 11] [nM] | IC50 [5, 12] [nM] | IC50 [6, 13] [nM] | IC50 ([6]; HAP1, viability assay, HAP1 MTAP-deleted) [nM] | IC50 ([4]; SDMA in-cell western) [nM] | IC50 ([5]; SDMA in-cell western, read-out: HAP1 MTAP deleted IC50) [nM]
CCc1cc(NC(=O)C(=O)N2C[C@@H](C)CC[C@@H]2c2ccc3nn([C@H]4CCCN(C)C4)cc3c2)cnc1N (single isomer, unassigned) [Compound 1271] | 50 to 500 | < 50 | < 50 | < 100 | < 100 | B (an IC50 ratio greater than or equal to 3 fold but lower than 10 fold) | < 1000 | – | – | – | – | – | – | –
COc1ncc(NC(=O)C(=O)N2C[C@H](C)CC[C@H]2c2cccc3[nH]ncc23)cc1C(N)=O (single isomer, unassigned) [Compound 926] | > 500 | – | > 500 | > 1000 | > 1000 | C (an IC50 ratio of less than 3 fold) | – | > 500 | > 10000 | – | – | – | – | –
N#C[C@@H]1CCN(C(=O)C(=O)Nc2cncc(C(N)=O)c2)[C@H](c2ccccc2)C1 (single isomer, unassigned) [Compound 353] | > 500 | – | > 500 | > 1000 | – | C (an IC50 ratio of less than 3 fold) | – | > 500 | > 10000 | > 1000 | – | – | – | –
CCc1cc(NC(=O)C(=O)N2C[C@@H](C)CC[C@@H]2c2ccc(N3CCN(C)[C@H](C)C3)nc2)cnc1N (single isomer, unassigned) [Compound 1263] | 50 to 500 | > 500 | < 50 | 100 to 1000 | < 100 | A (an IC50 ratio greater than or equal to 10 fold) | < 1000 | – | – | – | – | – | – | –
COc1ccc([C@@H]2CC[C@@H](C)CN2C(=O)C(=O)Nc2cncc(C(N)=O)c2)cc1C#N (racemic) [Compound 237, rac-5-{2-[(2R,5S)-2-(3-Cyano-4-methoxyphenyl)-5-methylpiperidin-1-yl]-2-oxoacetamido}pyridine-3-carboxamide] | 50 to 500 | – | 50 to 500 | > 1000 | – | B (an IC50 ratio greater than or equal to 3 fold but lower than 10 fold) | – | 50 to 500 | > 10000 | > 1000 | – | – | – | –
Cc1cc(NC(=O)C(=O)N2C[C@@H](C)CC[C@@H]2c2ccc(NS(C)(=O)=O)nc2)cnc1N (single isomer, unassigned) [Compound 998] | > 500 | – | > 500 | > 1000 | > 1000 | C (an IC50 ratio of less than 3 fold) | – | > 500 | > 10000 | – | – | – | – | –
C[C@H]1CC[C@H](c2ccncc2)N(C(=O)C(=O)Nc2cncc(C(N)=O)c2)C1 (single isomer, unassigned) [Compound 539, 5-(2-(5-methyl-2-(pyridin-4-yl)piperidin-1-yl)-2-oxoacetamido)nicotinamide] | 50 to 500 | – | < 50 | > 1000 | < 100 | A (an IC50 ratio greater than or equal to 10 fold) | – | 50 to 500 | – | – | 1000 to 10000 | – | – | –
C[C@@H]1CC[C@@H](c2cccc(C#N)c2)N(C(=O)C(=O)Nc2cncc(C(N)=O)c2)C1 (racemic) [Compound 239, rac-5-{2-[(2R,5S)-2-(3-Cyanophenyl)-5-methylpiperidin-1-yl]-2-oxoacetamido}pyridine-3-carboxamide] | 50 to 500 | – | < 50 | > 1000 | – | A (an IC50 ratio greater than or equal to 10 fold) | – | 50 to 500 | 1000 to 10000 | < 100 | – | – | – | –
COc1ncc(NC(=O)C(=O)N2C[C@@H](C)CC[C@@H]2c2ccc3[nH]c(=O)ccc3c2)cc1C(N)=O (single isomer, unassigned) [Compound 807] | 50 to 500 | – | < 50 | 100 to 1000 | – | A (an IC50 ratio greater than or equal to 10 fold) | – | < 50 | – | < 100 | – | < 1000 | – | –
C[C@@H]1CC[C@@H](c2ccc(Cl)c(N)c2)N(C(=O)C(=O)Nc2cncc(C(N)=O)c2)C1 (racemic) [Compound 280, rac-5-{2-[(2R,5S)-2-(3-Amino-4-chlorophenyl)-5-methylpiperidin-1-yl]-2-oxoacetamido}pyridine-3-carboxamide] | 50 to 500 | – | < 50 | > 1000 | – | A (an IC50 ratio greater than or equal to 10 fold) | – | 50 to 500 | 1000 to 10000 | 100 to 1000 | – | – | – | –
Cc1ccc([C@H]2CC[C@H](C)CN2C(=O)C(=O)Nc2cncc(C(N)=O)c2)nc1 (racemic) [Compound 937, 5-[[2-[(2R,5S)-5-Methyl-2-(5-methyl-2-pyridyl)-1-piperidyl]-2-oxo-acetyl]amino]pyridine-3-carboxamide] | 50 to 500 | – | 50 to 500 | > 1000 | 100 to 1000 | A (an IC50 ratio greater than or equal to 10 fold) | – | 50 to 500 | 1000 to 10000 | – | – | – | – | –
Cc1cc(C)n(-c2cccc([C@@H]3CC[C@@H](C)CN3C(=O)C(=O)Nc3cncc(C(N)=O)c3)c2)n1 (racemic) [Compound 153, rac-5-{2-[(2R,5S)-2-[3-(3,5-Dimethyl-1H-pyrazol-1-yl)phenyl]-5-methylpiperidin-1-yl]-2-oxoacetamido}pyridine-3-carboxamide] | 50 to 500 | 50 to 500 | 50 to 500 | > 1000 | < 100 | A (an IC50 ratio greater than or equal to 10 fold) | – | – | 1000 to 10000 | – | – | – | – | –
Cc1cc(NC(=O)C(=O)N2C[C@H](C)CC[C@H]2c2ccc(C(F)(F)F)cc2)cnc1N (single isomer, unassigned) [Compound 548] | 50 to 500 | – | < 50 | < 100 | < 100 | C (an IC50 ratio of less than 3 fold) | – | 50 to 500 | – | – | < 1000 | – | – | –
COc1ncc(NC(=O)C(=O)N2CCCCC2C2CCCCC2)cc1C(N)=O (single isomer, unassigned) [Compound 347, 5-(2-(2-cyclohexylpiperidin-1-yl)-2-oxoacetamido)-2-methoxynicotinamide] | 50 to 500 | – | < 50 | – | – | A (an IC50 ratio greater than or equal to 10 fold) | – | 50 to 500 | 1000 to 10000 | – | – | – | > 1000 | 100 to 1000
COCCc1nc2cc([C@H]3CC[C@H](C)CN3C(=O)C(=O)Nc3cnc(N)c(C4CC4)c3)ccc2s1 (single isomer, unassigned) [Compound 1176] | > 500 | – | > 500 | > 1000 | – | – | – | > 500 | > 10000 | > 1000 | – | – | – | –
Cc1cc(NC(=O)C(=O)N2CC[C@H](C#N)C[C@@H]2c2ccccc2)cnc1N (single isomer, unassigned) [Compound 380] | > 500 | – | > 500 | > 1000 | – | C (an IC50 ratio of less than 3 fold) | – | > 500 | > 10000 | > 1000 | – | – | – | –
